{"source": "patent US10123537B2", "about": "“Amide compound or salt thereof, agricultural and horticultural insecticide and microbicide comprising the compound, and method for using the insecticide and microbicide” (NIHON NOHYAKU CO., LTD., priority 2013, dated 2018)", "data": [{"test_system": "wheat powdery mildew fungus Erysiphe graminis", "assay": "not given", "settings": "200 ppm, foliar application to wheat plants, 10 mL per pot, 7 days after inoculation", "values": [{"smiles": "CCSc1cc(C(F)(F)F)cnc1C(=O)N(CC)c1ccc(C(F)(F)F)cn1", "note": "[Compound 1-10]", "control effect (control rate, lesion area) activity level": "D or higher"}, {"smiles": "CC[S+]([O-])c1cc(C(F)(F)F)cnc1C(=O)N(c1ccc(C(F)(F)F)cn1)C1CC1", "note": "(centres unmarked) [Compound 1-14]", "control effect (control rate, lesion area) activity level": "D or higher"}, {"smiles": "CCS(=O)(=O)c1cc(C(F)(F)F)cnc1C(=O)N(c1ccc(C(F)(F)F)cn1)C1CC1", "note": "[Compound 1-15]", "control effect (control rate, lesion area) activity level": "D or higher"}, {"smiles": "CCS(=O)(=O)c1cc(C(F)(F)F)ccc1C(=O)N(C)c1ccc(C(F)(C(F)(F)F)C(F)(F)F)cn1", "note": "[Compound 1-21]", "control effect (control rate, lesion area) activity level": "D or higher"}, {"smiles": "CCSc1cc(C(F)(F)F)ccc1C(=O)N(C)c1ccc(C(F)(C(F)(F)F)C(F)(F)F)nc1", "note": "[Compound 1-22]", "control effect (control rate, lesion area) activity level": "D or higher"}, {"smiles": "CCS(=O)(=O)c1cc(C(F)(F)F)ccc1C(=O)N(C)c1ccc(C(F)(C(F)(F)F)C(F)(F)F)cc1", "note": "[Compound 3-9]", "control effect (control rate, lesion area) activity level": "D or higher"}, {"smiles": "CC[S+]([O-])c1cc(C(F)(F)F)ccc1C(=O)N(C)c1ccc(OC(F)(F)F)cc1", "note": "(centres unmarked) [Compound 3-13]", "control effect (control rate, lesion area) activity level": "D or higher"}, {"smiles": "CC[S+]([O-])c1cc(C(F)(F)F)ccc1C(=O)N(C)c1ccc(SC(F)(F)F)cc1", "note": "(centres unmarked) [Compound 3-16]", "control effect (control rate, lesion area) activity level": "D or higher"}, {"smiles": "CCS(=O)(=O)c1cc(C(F)(F)F)ccc1C(=O)N(C)c1ccc(SC(F)(F)F)cc1", "note": "[Compound 3-17]", "control effect (control rate, lesion area) activity level": "D or higher"}, {"smiles": "CC[S+]([O-])c1cc(C(F)(F)F)ccc1C(=O)N(C)c1ccc(C(C)C)cc1", "note": "(centres unmarked) [Compound 3-19]", "control effect (control rate, lesion area) activity level": "D or higher"}, {"smiles": "CC[S+]([O-])c1cc(C(F)(F)F)ccc1C(=O)N(C)c1ccc(Cl)c(Cl)c1", "note": "(centres unmarked) [Compound 3-28]", "control effect (control rate, lesion area) activity level": "D or higher"}, {"smiles": "CC[S+]([O-])c1cc(C(F)(F)F)ccc1C(=O)N(C)c1ccc(Cl)c(C(F)(F)F)c1", "note": "(centres unmarked) [Compound 3-31]", "control effect (control rate, lesion area) activity level": "D or higher"}, {"smiles": "CCS(=O)(=O)c1cc(C(F)(F)F)ccc1C(=O)N(C)c1ccc(Cl)c(C(F)(F)F)c1", "note": "[Compound 3-32]", "control effect (control rate, lesion area) activity level": "D or higher"}, {"smiles": "CC[S+]([O-])c1cc(C(F)(F)F)ccc1C(=O)N(C)c1ccc(I)cc1F", "note": "(centres unmarked) [Compound 3-34]", "control effect (control rate, lesion area) activity level": "D or higher"}, {"smiles": "CCS(=O)(=O)c1cc(C(F)(F)F)ccc1C(=O)N(C)c1ccc(C(F)(F)C(F)(F)F)c(C)c1", "note": "[Compound 3-47]", "control effect (control rate, lesion area) activity level": "D or higher"}, {"smiles": "CCS(=O)(=O)c1cc(C(F)(F)F)ccc1C(=O)N(C)c1ccc(C(F)(F)C(F)(F)F)c(C)c1C", "note": "[Compound 3-50]", "control effect (control rate, lesion area) activity level": "D or higher"}, {"smiles": "CCS(=O)(=O)c1cc(C(F)(F)F)ccc1C(=O)Nc1ccc(C(F)(F)C(F)(F)C(F)(F)C(F)(F)F)cc1C", "note": "[Compound 4-16]", "control effect (control rate, lesion area) activity level": "D or higher"}, {"smiles": "CC[S+]([O-])c1cc(C(F)(F)F)ccc1C(=O)Nc1ccc(F)c(C(F)(F)F)c1F", "note": "(centres unmarked) [Compound 4-21]", "control effect (control rate, lesion area) activity level": "D or higher"}, {"smiles": "CCS(=O)(=O)c1cc(C(F)(F)F)ccc1C(=O)Nc1ccc(F)c(C(F)(F)F)c1F", "note": "[Compound 4-22]", "control effect (control rate, lesion area) activity level": "D or higher"}, {"smiles": "CC[S+]([O-])c1cc(C(F)(F)F)ccc1C(=O)Nc1ccc(C(F)(C(F)(F)F)C(F)(F)F)cc1Cl", "note": "(centres unmarked) [Compound 4-27]", "control effect (control rate, lesion area) activity level": "D or higher"}, {"smiles": "CCSc1cc(C(F)(F)F)ccc1C(=O)Nc1ccc(C(F)(C(F)F)C(F)(F)F)cc1Cl", "note": "(centres unmarked) [Compound 5-51]", "control effect (control rate, lesion area) activity level": "D or higher"}, {"smiles": "CCS(=O)(=O)c1cc(C(F)(F)F)ccc1C(=O)Nc1ccc(C(F)(C(F)(F)F)C(F)(F)Br)cc1Cl", "note": "(centres unmarked) [Compound 5-59]", "control effect (control rate, lesion area) activity level": "D or higher"}, {"smiles": "CC[S+]([O-])c1cc(C(F)(F)F)ccc1C(=O)Nc1ccc([Si](C)(C)C)cc1C", "note": "(centres unmarked) [Compound 5-64]", "control effect (control rate, lesion area) activity level": "D or higher"}, {"smiles": "CC[S+]([O-])c1cc(C(F)(F)F)ccc1C(=O)Nc1ccc(OC(F)(F)C(F)F)cc1C", "note": "(centres unmarked) [Compound 5-70]", "control effect (control rate, lesion area) activity level": "D or higher"}, {"smiles": "CCS(=O)(=O)c1cc(C(F)(F)F)ccc1C(=O)Nc1ccc(OC(F)(F)C(F)F)cc1C", "note": "[Compound 5-71]", "control effect (control rate, lesion area) activity level": "D or higher"}, {"smiles": "CC[S+]([O-])c1cc(C(F)(F)F)ccc1C(=O)Nc1ccc(OC(F)(F)F)cc1Br", "note": "(centres unmarked) [Compound 5-73]", "control effect (control rate, lesion area) activity level": "D or higher"}, {"smiles": "CCc1cc(OC(F)(F)F)ccc1NC(=O)c1ccc(C(F)(F)F)cc1S(=O)(=O)CC", "note": "[Compound 5-77]", "control effect (control rate, lesion area) activity level": "D or higher"}, {"smiles": "CCS(=O)(=O)c1cc(OC)ccc1C(=O)Nc1ccc(C(F)(C(F)(F)F)C(F)(F)F)cc1C", "note": "[Compound 6-12]", "control effect (control rate, lesion area) activity level": "D or higher"}, {"smiles": "CCSc1cc(SC(F)(F)F)ccc1C(=O)Nc1ccc(C(F)(C(F)(F)F)C(F)(F)F)cc1Cl", "note": "[Compound 6-22]", "control effect (control rate, lesion area) activity level": "D or higher"}, {"smiles": "CC[S+]([O-])c1cc(SC(F)(F)F)ccc1C(=O)Nc1ccc(C(F)(C(F)(F)F)C(F)(F)F)cc1Cl", "note": "(centres unmarked) [Compound 6-23]", "control effect (control rate, lesion area) activity level": "D or higher"}, {"smiles": "CCS(=O)(=O)c1cc(SC(F)(F)F)ccc1C(=O)Nc1ccc(C(F)(C(F)(F)F)C(F)(F)F)cc1Cl", "note": "[Compound 6-24]", "control effect (control rate, lesion area) activity level": "D or higher"}]}, {"test_system": "Meloidogyne incognita", "assay": "Nematicidal test on Meloidogyne incognita", "format": "in vivo", "settings": "500 ppm, 1 mL soil drench, potted melon seedlings, 8 days after inoculation", "method": "Nematicidal Test on Meloidogyne incognita\nAgrochemical formulations containing different amide compounds represented by the general formula (I) of the present invention or salts thereof as an active ingredient were separately diluted to a concentration of 500 ppm. The diluted agrochemical formulations (1 mL) were drenched into the soil around the foot of potted melon seedlings. At one day after the agrochemical treatment, an aqueous suspension of Meloidogyne incognita (about 500 worms/mL) was drenched into the soil for inoculation both in a treatment plot and in a non-treatment plot. The inoculated pots were kept in a greenhouse at 25° C. At 8 days after the inoculation, the root of each seedling was washed with water, the number of root nodules was counted, and the nematicidal effect was evaluated according to the following criteria.\nA: the percentage of the number of root nodules relative to the non-treatment plot is 0%.\nB: the percentage of the number of root nodules relative to the non-treatment plot is 1 to 10%.\nC: the percentage of the number of root nodules relative to the non-treatment plot is 11 to 20%.\nD: the percentage of the number of root nodules relative to the non-treatment plot is 21 to 50%.", "values": [{"smiles": "CCSc1cc(C(F)(F)F)ccc1C(=O)N(c1ccc(C(F)(F)F)cn1)C1CC1", "note": "[Compound 1-7]", "nematicidal effect (number of root nodules relative to non-treatment plot) activity level": "D or higher"}, {"smiles": "CCSc1cc(C(F)(F)F)cnc1C(=O)N(CC)c1ccc(C(F)(F)F)cn1", "note": "[Compound 1-10]", "nematicidal effect (number of root nodules relative to non-treatment plot) activity level": "D or higher"}, {"smiles": "CCN(C(=O)c1ncc(C(F)(F)F)cc1S(=O)(=O)CC)c1ccc(C(F)(F)F)cn1", "note": "[Compound 1-12]", "nematicidal effect (number of root nodules relative to non-treatment plot) activity level": "D or higher"}, {"smiles": "CCSc1cc(C(F)(F)F)cnc1C(=O)N(c1ccc(C(F)(F)F)cn1)C1CC1", "note": "[Compound 1-13]", "nematicidal effect (number of root nodules relative to non-treatment plot) activity level": "D or higher"}, {"smiles": "CCS(=O)(=O)c1cc(C(F)(F)F)ccc1C(=O)N(C)c1ccc(C(F)(C(F)(F)F)C(F)(F)F)cn1", "note": "[Compound 1-21]", "nematicidal effect (number of root nodules relative to non-treatment plot) activity level": "D or higher"}, {"smiles": "CCS(=O)(=O)c1cc(C(F)(F)F)ccc1C(=O)N(C)c1ccc(C(F)(C(F)(F)F)C(F)(F)F)nc1", "note": "[Compound 1-24]", "nematicidal effect (number of root nodules relative to non-treatment plot) activity level": "D or higher"}, {"smiles": "CCS(=O)(=O)c1cc(C(F)(F)C(F)(F)F)ccc1C(=O)N(C)c1ccc(C(F)(F)F)cn1", "note": "[Compound 1-44]", "nematicidal effect (number of root nodules relative to non-treatment plot) activity level": "D or higher"}, {"smiles": "CCSc1cc(C(F)(F)F)ccc1C(=O)N(C)c1ccc(C(F)(F)F)nn1", "note": "[Compound 2-1]", "nematicidal effect (number of root nodules relative to non-treatment plot) activity level": "D or higher"}, {"smiles": "CCS(=O)(=O)c1cc(C(F)(F)F)ccc1C(=O)N(C)c1ccc(C(F)(F)F)nn1", "note": "[Compound 2-3]", "nematicidal effect (number of root nodules relative to non-treatment plot) activity level": "D or higher"}, {"smiles": "CCSc1cc(C(F)(F)F)ccc1C(=O)N(C)c1ccc(C(F)(C(F)(F)F)C(F)(F)F)cc1", "note": "[Compound 3-7]", "nematicidal effect (number of root nodules relative to non-treatment plot) activity level": "D or higher"}, {"smiles": "CC[S+]([O-])c1cc(C(F)(F)F)ccc1C(=O)N(C)c1ccc(C(F)(C(F)(F)F)C(F)(F)F)cc1", "note": "(centres unmarked) [Compound 3-8]", "nematicidal effect (number of root nodules relative to non-treatment plot) activity level": "D or higher"}, {"smiles": "CCS(=O)(=O)c1cc(C(F)(F)F)ccc1C(=O)N(C)c1ccc(C(F)(C(F)(F)F)C(F)(F)F)cc1", "note": "[Compound 3-9]", "nematicidal effect (number of root nodules relative to non-treatment plot) activity level": "D or higher"}, {"smiles": "CC[S+]([O-])c1cc(C(F)(F)F)ccc1C(=O)N(C)c1ccc(Cl)cc1", "note": "(centres unmarked) [Compound 3-22]", "nematicidal effect (number of root nodules relative to non-treatment plot) activity level": "D or higher"}]}]}
